Measurements from ChEMBL document CHEMBL1150488 (1993).

Key:
Format in all cases: functional
Staphylococcus aureus [1] = assay: Tested for zone of inhibition against Staphylococcus aureus UC3665 (1 mg/mL, 80 microL/12.7 mm)
Clostridium perfringens [2] = assay: The compound (1 mg/mL, 80 microL/12.7 mm) was tested for zone of inhibition against Clostridium perfringens UC6509 (22H -, H: Hazy zone)
[3] = system: Staphylococcus epidermidis; assay: Tested for zone of inhibition against Staphylococcus epidermidis UC719 (1 mg/mL, 80 microL/6.5 mm)
Bacteroides fragilis = assay: Tested for zone of inhibition against Bacteroides fragilis UC6513 (1 mg/mL, 80 microL/12.7 mm)
Staphylococcus aureus [4] = assay: Tested for zone of inhibition against Staphylococcus aureus UC6685 (1 mg/mL, 80 microL/6.5 mm)
Clostridium perfringens [5] = assay: Tested for zone of inhibition against Clostridium perfringens UC6509
Staphylococcus aureus [6] = assay: The compound (1 mg/mL, 80 microL/6.5 mm) was tested for zone of inhibition against Staphylococcus aureus UC6685 (38H -, H: Hazy zone)

Compound | Diameter of inhibition zone (Staphylococcus aureus [1]) | Diameter of inhibition zone (Clostridium perfringens [2]) | Diameter of inhibition zone [3] | Diameter of inhibition zone (Bacteroides fragilis) | Diameter of inhibition zone (Staphylococcus aureus [4]) | Diameter of inhibition zone (Clostridium perfringens [5]) | Diameter of inhibition zone (Staphylococcus aureus [6])
CC(=O)OC/C(C)=C1\CN(C(C)=O)C1=O | 0 mm | 22 mm | 0 mm | 22 mm | 0 mm |  | 
CCCCCC(=O)N1C[C@H]([C@H](C)CF)C1=O | 48 mm |  | 31 mm |  |  | 79 mm | 38 mm
